Laboratory results: patent publication US20260210976A1, “METHOD TO DETECT AND TREAT PERIPHERAL NEUROPATHY” (Ohio State Innovation Foundation, priority 2022, published 2026)

Assays:
[1] = Harrison et al., 2009; cited from earlier work
scWAT = assay: Hematoxylin staining of scWAT sections; format: in vivo, mouse
Source text: Intact inguinal scWAT (ing-scWAT), axillary scWAT (ax-scWAT), and perigonadal WAT (pgWAT) depots were excised from BL6 and HET3 mice, fixed in 10% buffered formalin overnight at room temperature and embedded in paraffin. Paraffin embedded tissues were sectioned 7 μm thick. Tissue sections were deparaffinized with HistoChoice Clearing Agent and hydrated in decreasing concentrations of EtOH (100%, 95% 70%, 30%, 0%). Tissues were stained in Mayer's Hematoxylin Solution (Sigma-Aldrich Cat #MHS16) or Mayer's Hemalum Solution (Sigma-Aldrich Cat #109249) and a drop of mounting fluid was applied, and tissues were cover slipped, sealed, and imaged. Three representative images were captured per tissue per animal and cell perimeter and area was measured in Fiji (Schindelin et al., 2012).

[2] = tested on: diabetic NONcNZO10/LtJ mice; conditions: 14 ppm diet-fed (Reifsnyder, Doty, & Harrison, 2014); cited from earlier work
scWAT collagen = assay: Picrosirius red staining and collagen birefringence quantification of scWAT; format: in vivo, mouse
Source text: Intact scWAT and pgWAT depots were excised from BL6 and HET3 mice, fixed in 10% buffered formalin overnight at room temperature and embedded in paraffin. Paraffin embedded tissues were sectioned 7 μm thick. Tissue sections were deparaffinized with HistoChoice Clearing Agent (Sigma-Aldrich Cat #H2779) and hydrated in decreasing concentrations of EtOH (100%, 95% 70%, 30%, 0%). Tissues were stained in picrosirius red stain (Electron Microscopy Sciences Cat #26357) for 1 hr, washed in two changes of acidified water (5 seconds each), dehydrated in three changes of 100% EtOH, cleared in histo-grade Xylenes for 5 minutes and cover slipped using Permount mounting media (Electron Microscopy Sciences Cat #17986-01). Five representative images per tissue were captured using both brightfield and circularly polarized light to gauge collagen distribution. Total collagen was measured by first quantifying the area comprised by picrosirius red staining in the field of view using brightfield microscopy. This was then divided by the area comprised exclusively of polarized collagen fibers. […] To differentiate the relative contribution of collagen fiber thicknesses, methods were adapted from (Rich & Whittaker, 2005) for use in Fiji (Schindelin et al., 2012). Hue values used for this analysis were as follows: green (52-128), yellow (39-51), orange (10-38), and red (0-9, 230-255). Saturation was not accounted for, and brightness was thresholded at 35-255 to prevent noise from being included in pixel counts. See FIG. 11 for a schematic of this method.

[3] = tested on: PSD95 and PGP9.5 protein expression in scWAT; assay: Western blot of scWAT after daily intra-adipose CL316 243; format: in vivo; conditions: daily intra-adipose administration for 7 days

Row | total increase in collagen between treatment groups (scWAT collagen; early-intervention) | collagen deposition versus vehicle group (scWAT collagen; early-intervention group) | animals exhibiting severely fibrotic tissue (scWAT collagen; early-intervention, females) | animals exhibiting severely fibrotic tissue (scWAT collagen; early-intervention, males) | green collagen fibers (birefringence) (scWAT collagen; early-intervention, males) | orange collagen fibers (birefringence) (scWAT collagen; early-intervention, males) | thick collagen fibers (orange+red), share of thin:thick ratio (scWAT collagen; early-intervention, males) | thin collagen fibers, share of thin:thick ratio (scWAT collagen; early-intervention, males) | birefringence patterns (scWAT collagen; late-intervention) | total collagen (scWAT collagen; late-intervention, females) | total collagen (scWAT collagen; late-intervention, males, failed to meet statistical significance) | adipose tissue inflammation and fibrosis (scWAT collagen; overall statement) | scWAT fibrosis (scWAT collagen; treatment started early in life) | SMILES | circulating rapamycin, males versus females [1] | crown-like structures, lipofuscin and immune cell infiltration in scWAT (scWAT; early-intervention group (started ~30 weeks)) | crown-like structures, lipofuscin and immune cell infiltration in scWAT (scWAT; late-intervention group (started ~72 weeks)) | pancreatic fibrosis [2] | PGP9.5 protein expression in scWAT [3] | PSD95 expression in scWAT [3]
1 | not statistically significant | greater | 3 out of 11 | 3 out of 8 | decreased | increased | 75% | 25% | did not vary | no difference | possible increase | worsened | increased | CO[C@H]1C[C@@H]2CC[C@@H](C)[C@@](O)(O2)C(=O)C(=O)N2CCCC[C@H]2C(=O)O[C@H]([C@H](C)C[C@@H]2CC[C@@H](O)[C@H](OC)C2)CC(=O)[C@H](C)/C=C(\C)[C@@H](O)[C@@H](OC)C(=O)[C@H](C)C[C@H](C)/C=C/C=C/C=C/1C [rapamycin] | equivalent | increased | not observed | caused pancreatic fibrosis | – | –
2 | – | – | – | – | – | – | – | – | – | – | – | – | – | C[C@H](Cc1ccc2c(c1)OC(C(=O)[O-])(C(=O)[O-])O2)NC[C@H](O)c1cccc(Cl)c1.[Na+].[Na+] [CL316 243] | – | – | – | – | upward trend | increased
